From patent publication US20260297060A1, “COMPOUNDS FOR THE DEGRADATION OF MUTANT BRAF” (C4 THERAPEUTICS, INC., priority 2023, published 2026)

What was measured:
[1] = tested on: A375; test: A375 cell viability assay (Example 15); format: cell-based, human; conditions: for cytotoxicity (in words): A375 cells; for effect on cancer cell viability: human, a375 cells, 0.1 µM
Procedure: FIG. 83 is a line graph showing the results of Compound 26, Compound 26-NMe, Compound 141, and Compound 141-NMe in an A375 viability assay. The y-axis is viability in % and the x-axis is concentration (nM). The experiment was conducted as described in Example 15.
This robust degradation activity is surprising in view of the minimal inhibition-based activity of selected compounds. […] However, the degradation deficient versions of Compound 26 and Compound 141 (N-methyl analogs) had minimal effect on cell viability at a concentration of 100 nM (see FIG. 83 and Example 15).

[2] = tested on: BRAF V600E; test: Pharmacodynamics of BRAF protein degradation in inoculated CNS tumors (Example 12); format: in vivo, human A375 CNS xenograft in mice; conditions: CNS tumor-bearing mice, after administration, versus encorafenib, FIG. 51
Procedure: FIG. 51 is a plot showing the pharmacodynamics of BRAF protein degradation in the inoculated CNS tumors. […] The experiment was conducted as described in Example 12.

[3] = tested on: A375 cells; test: A375 Cell Viability Assay (CTGlo), Example 16; format: cell-based, human; conditions: 72 h, 10-point dose series, in words (FIG. 83)
Procedure: The effect of compounds of the invention on cell viability was assessed based on the quantification of ATP using the CellTiter-Glo® 2.0 (referred to here as CTGlo) Cell Viability Assay (Catalog No. G9243, Promega, Madison, WI, USA), which signals the presence of metabolically active cells.
A375 cells were obtained from ATCC (Catalog No. CRL-1619, Manassas, VA, USA) (also referred to here as A375.1) and were maintained in DMEM, (Corning, Catalog No. 10-017-CV, Glendale, AZ, USA) supplemented with 10% fetal bovine serum (FBS; Catalog No. 16000044, Gibco, Grand Island, NY, USA) at 37° C. in an atmosphere of 5% CO2 in air. The cells were routinely sub-cultured to maintain cell density between 3×10^5-1.5×10^6 cells/mL. […] An aliquot of cell suspension was diluted 2× with a 0.4% Trypan Blue solution (Catalog No. 15250061, ThermoFisher Scientific, Waltham, MA, USA) and cell count was determined. […]
Test compounds were prepared by dissolving neat compounds in dimethyl sulfoxide (DMSO; Catalog No. D8418, Sigma-Aldrich, Inc., St. Louis, MO, USA) to generate 10 mM stock solution and stored at −20° C. […] CellTiter-Glo® reagent was then added to the cells and luminescence signals were measured after 4 hours using an EnVision™ Multimode plate reader (Perkin Elmer, Santa Clara, CA). […]

Compound | cytotoxicity (in words) [1] | effect on cancer cell viability [1] [%] | BRAF V600E levels in the brain tumor compared with encorafenib [2] | impact on viability of A375 cells [3]
CCN(C)S(=O)(=O)Nc1ccc(F)c(Oc2ccc3ncn([C@H]4COC5(CCN(C6CC7(C6)CN(c6cc8c(cc6F)c(N6CCC(=O)NC6=O)nn8C)C7)CC5)C4)c(=O)c3c2)c1C#N [Compound 26, (3R)-3-[6-[2-cyano-3-[[ethyl(methyl)sulfamoyl]amino]-6-fluoro-phenoxy]-4-oxo-quinazolin-3-yl]-8-[2-[3-(2,4-dioxohexahydropyrimidin-1-yl)-5-fluoro-1-methyl-indazol-6-yl]-2-azaspiro[3.3]heptan-6-yl]-1-oxa-8-azaspiro[4.5]decane] | potent cytotoxic agents | ≥ 30 | much lower | significant impact on the viability of A375 cells
CCN(C)S(=O)(=O)Nc1ccc(F)c(Oc2ccc3ncn(C4CC5(CCN(C6CC7(C6)CN(c6cc8c(cc6F)c(N6CCC(=O)NC6=O)nn8C)C7)CC5)C4)c(=O)c3c2)c1C#N (centres unmarked) [Compound 141, 6-[2-cyano-3-[[ethyl(methyl)sulfamoyl]amino]-6-fluoro-phenoxy]-3-[7-[2-[3-(2,4-dioxohexahydropyrimidin-1-yl)-5-fluoro-1-methyl-indazol-6-yl]-2-azaspiro[3.3]heptan-6-yl]-7-azaspiro[3.5]nonan-2-yl]-4-oxo-quinazoline] | potent cytotoxic agents | ≥ 30 | much lower | significant impact on the viability of A375 cells
